Entries after “also recorded” stand apart in the source; their conditions may differ.
What was measured:
[1] = test system: MOG-induced EAE GFAP-Luc/C57 mice; experiment: Clinical neurologic scoring in MOG-induced monophasic EAE; type: in vivo, mouse; details: for clinical score compared to sham treated: 5 μg IV daily for 12 days from day 9, n=8 per group
Text: (§1) Methods. Animals. Male FVB/N-Tg (GFAP-luc+/−) mice (Xenogen Corp, Alameda, CA) were crossed with either albino C57BL/6J-Tyrc-2j or SJL/J mice purchased from Charles River Laboratories (Wilmington, MA). The FI offspring were genotyped by PCR following the manufacturer's protocol. Female mice between 8-10 weeks of age positive for GFAP (GFAP-luc/C57 or GFAP-Luc/SJL) expression were used.
Induction of EAE and clinical assessment of animals. Active EAE was induced according to a standard protocol (Smith M, et al. Brain Research 1983:264:241-53). Mice were immunized on Day 0 by subcutaneous injection on both sides of the tail base with 100 μL of an emulsion composed of either PLP139-151 or MOG35-55 peptide in an equal volume of Freund's adjuvant, supplemented with 4 mg/mL killed M. tuberculosis H37Ra (Difco Laboratories, Detroit, MI). The initial dose of antigen was 100 μg of PLP peptide for inducing relapsing EAE in SJL/J mice, or 200 μg of MOG peptide per C57BL/6 mouse for induction of acute monophasic EAE. GFAP-Luc/SJL/J mice received a second PLP antigen immunization on Day 7. Immediately following these immunizations, mice received intravenous (IV) injections of 200 ng Bordetella pertussis toxin diluted in 200 μL phosphate buffered saline (PBS) (List Biological Laboratories, Campbell, CA). […] Animals were weighed and assessed daily for clinical signs of EAE by two blinded independent observers during the acute phase of illness, and followed three times a week during the later chronic phase. The monophasic EAE MOG C57BL6 model was monitored for 28-30 days and the PLP SJL/J relapsing model was followed for nearly 6 months after immunization. The clinical scoring system used to quantify behavioral neurological deficits in the EAE mouse models (Table 2) was previously described (Aquino D, et al. Journal of Neurochemistry 1990:54:1398-404). […]
Statistical analysis. […] Bioluminescence was measured by the number of days where luminescence intensity in the spinal cord exceeded a threshold of 0.5 relative to the left ear. […]

[2] = test system: SJL/J relapsing-remitting EAE mice; experiment: Spinal cord histopathology (Luxol fast blue, SMI-32, mouse IgG) in SJL/J relapsing-remitting EAE; type: in vivo
Text: Histopathology. To assess CNS inflammation and demyelination at different time points after immunization, EAE mice in the JM4 peptide-treated and sham-treated groups were anesthetized and perfused with ice-cold PBS, followed by 4% paraformaldehyde into the left ventricle. Spinal cords and brain were removed. Tissues were then embedded in paraffin, sectioned and stained with Luxol-Fast Blue/PAS to determine the extent of demyelination. Five-micron paraffin sections from the high cervical, thoracic and low lumbosacral region of the spinal cord were placed on the same slide. Each slide contained a control normal spinal cord section, a sham-treated EAE cord, and spinal cord sections from JM4 treated EAE animals. Histopathologic examination was performed in blinded fashion. In addition, SMI-32 anti-neurofilament H immunohistochemical staining was completed to assess acute axonal injury (Aquino D, et al. Journal of Neurochemistry 1990:54:1398-404). In brief, 5 μm sections were de-paraffinized, treated with antigen-retrieving solution, and blocked with normal horse serum to minimize nonspecific binding. The sections were first incubated with mouse SMI-32 antibody (Sternberger Monoclonals, Lutherville, MD) diluted 1:5,000 in PBS overnight at 4° C. After two 5-minute PBS washes, the sections were incubated with biotinylated horse anti-mouse IgG (Vector Labs, Burlingame, CA), and then by horseradish peroxidase (HRP)-avidin complex (Vector Labs) for 30 minutes each. Immunostaining was visualized by reacting the sections with diaminobenzidine tetrahydrochloride (Stable DAB: Invitrogen) for 1 to 3 minutes. Excess DAB was removed by washing with distilled water and the slides were evaluated using light microscopy.

[3] = Hematopoietic and other side effects; details: acute MOG and relapsing-remitting PLP SJL/J EAE models
[4] = test system: PLP-induced relapsing-remitting EAE GFAP-Luc/SJL mice; experiment: Clinical scoring, relapse and survival in PLP-induced relapsing-remitting EAE; type: in vivo, mouse; details: for long term clinical scores compared to sham treated: for over five months, n=4 JM-4, n=5 sham, p<0.05 at day 60 onward
Text: as §1
Induction of EAE and clinical assessment of animals. […] Mice were immunized on Day 0 by subcutaneous injection on both sides of the tail base with 100 μL of an emulsion composed of either PLP139-151 or MOG35-55 peptide in an equal volume of Freund's adjuvant, supplemented with 4 mg/mL killed M. tuberculosis H37Ra (Difco Laboratories, Detroit, MI). The initial dose of antigen was 100 μg of PLP peptide for inducing relapsing EAE in SJL/J mice, or 200 μg of MOG peptide per C57BL/6 mouse for induction of acute monophasic EAE. GFAP-Luc/SJL/J mice received a second PLP antigen immunization on Day 7. Immediately following these immunizations, mice received intravenous (IV) injections of 200 ng Bordetella pertussis toxin diluted in 200 μL phosphate buffered saline (PBS) (List Biological Laboratories, Campbell, CA). The GFAP-Luc/C57BL mice received an additional IV injection of 200 ng Bordetella pertussis toxin on post-inoculation Day 2. Animals were weighed and assessed daily for clinical signs of EAE by two blinded independent observers during the acute phase of illness, and followed three times a week during the later chronic phase. The monophasic EAE MOG C57BL6 model was monitored for 28-30 days and the PLP SJL/J relapsing model was followed for nearly 6 months after immunization. The clinical scoring system used to quantify behavioral neurological deficits in the EAE mouse models (Table 2) was previously described (Aquino D, et al. Journal of Neurochemistry 1990:54:1398-404).
Immediately before use, the peptide solution was further diluted to 5 μg/200 μl with PBS. […] Control EAE animals were sham-treated with IV saline for the same time period. To evaluate the treatment effects, mice underwent BLI examination as well as clinical and histopathologic evaluation.
Statistical analysis. Data is presented as the mean±SEM. […] Bioluminescence was measured by the number of days where luminescence intensity in the spinal cord exceeded a threshold of 0.5 relative to the left ear. Survival data was examined using a two-tailed log-rank test. Values of p<0.05 were considered significant.

[5] = symptomatic EAE mice, literature; cited from earlier work
[6] = test system: GFAP-luc; experiment: GFAP-luc bioluminescence imaging (BLI) in MOG-induced EAE; type: in vivo, mouse
Experimental: (§2) Bioluminescence Imaging (BLI). Bioluminescent signals were quantified using the In Vivo Imaging System 100 (IVIS: Xenogen, Alameda, CA) with a cold Charged Coupled Device (CCD) camera mounted in a dark box. Three animals were imaged simultaneously. Mice received an IV injection of 1 mg/kg D-luciferin (Xenogen) 2-3 minutes prior to imaging and were immediately anesthetized with vaporized isoflurane for imaging. The imaging signal was quantified in units of photons per second per centimeter squared per steradian (photons/s·cm2/sr) using […] Version 3.1 (Xenogen) software and integrated over 2 minutes. For signal quantification, photons were obtained from a “region of interest” (ROI) that covered 2.18 cm2 of contiguous forebrain and 5.27 cm2 of spinal cord region. Bioluminescence was expressed as a ratio of the total photons value from the central nervous system ROI to the photon value obtained from an equal sized area over the left ear, used as an endogenous control. In the acute EAE model, measurements were typically taken every 1-2 days and the average of 2 consecutive days readings were used. Bioluminescence imaging was performed every other day after disease onset and twice weekly during the later chronic phase of the illness.
(§3) JM4 treatment. The JM4 peptide was first dissolved in distilled water to 2 mg/ml and stored at −80° C. Immediately before use, the peptide solution was further diluted to 5 μg/200 μl with PBS. […] The EAE mice were randomly divided into a JM4 treated and a sham treated group. The JM4 treated EAE animals (4-10 per group) were treated daily with IV JM4 250 μg/kg of the peptide in PBS for 10-12 days. Control EAE animals were sham-treated with IV saline for the same time period. To evaluate the treatment effects, mice underwent BLI examination as well as clinical and histopathologic evaluation.
(§4) Statistical analysis. Data is presented as the mean±SEM. Two tailed t-tests were used to compare JM4 effects on BLI and clinical scores. The long-term effects of JM4 were studied in the relapsing EAE model by using each subject's average clinical score from day 60 onward. Bioluminescence was measured by the number of days where luminescence intensity in the spinal cord exceeded a threshold of 0.5 relative to the left ear. Survival data was examined using a two-tailed log-rank test. Values of p<0.05 were considered significant.

[7] = test system: GFAP-luc; experiment: GFAP-luc bioluminescence imaging flare-ups in PLP-induced relapsing-remitting EAE; type: in vivo, mouse; details: for number of imaging flare ups / GFAP-luc expression compared to sham treated: relapsing-remitting EAE, brain or spinal cord
Experimental: as §2, §3, §4

[8] = test system: complement component C3; experiment: C3/GFAP immunohistochemistry for A1 astrocyte activation in spinal cord of MOG EAE mice; type: in vivo, mouse
Experimental: Spinal cord (cut into 6-7 equal pieces from cervical to sacral) was frozen and serially cut at 8 μm-thick cross sections and collected on slides, then post-fixed in acetone at −20° C. for 10 min. Sections were first treated with Target Unmasking Fluid (Pan Path) at 90° C. for 10 min, and blocked in 2% normal horse serum for 10 min. Sections were incubated overnight at 4° C. with either monoclonal rat anti-mouse C3 complement (Abcam, AB11862) at 1:50 or polyclonal rabbit anti-mouse GFAP (Dako Z0334GFAP) at 1:500. The next day sections were washed in PBS three times for 10 min each and incubated with cy3 or cy2 conjugated goat anti-mouse/rat/rabbit IgG (Jackson ImmunResearch) at 1:120 working dilution for 1 hour. Sections were washed in dH2O three times for 10 min each, followed by fluorescence microscopy imaging.
Immunohistochemistry images were obtained using an Olympus BX41 fluorescent microscope (Center Valley, PA, USA) fitted with ProgRes MF cool digital camera using 4× or 10× objectives. Half of each section from different spinal levels was quantified by measuring the percent area in the structure where label exceeded a constant threshold value using Image Pro 4.0 image analysis software (BD Biosciences, Franklin Lakes, NJ).
as §4

[9] = test system: EAE mice; details: cited from earlier work

GCAEHCSLNENITVPDTKV [JM-4]
clinical score compared to sham treated [1]: significantly lower
clinical score compared to sham treated ([1]; listed as JM4): significant reduction in clinical score
maximum mean clinical score ([1]; JM4 250 μg/kg IV for 12 days starting day 9 post-immunization, score scale 0-6 (Table 2), sham 3.7±0.4, p<0.05): 2.25±0.3
spinal cord demyelination and axonal injury ([2]; Luxol fast blue, ventral white matter): protective against spinal cord demyelination and axonal injury
number of injured axons (SMI-32) rimming the ventral spinal cord versus sham ([2]; mouse, in vivo): large reduction in number of injured axons
IgG immunoreactivity in spinal cord (blood-brain barrier breakdown) ([2]; versus saline treated EAE): profoundly reduced
hematogenic side effects [3]: without the negative hematogenic side effects
clinical deficit improved earlier than sham-treated animals ([4]; acute phase of the disease): 7 days
survival ([4]; at 100 days, Kaplan-Meier, sham 50%): 100%
average clinical score ([4]; for 130 days, 12-day course IV 5 μg/day from day 9, sham around 2): under 1
long term clinical scores compared to sham treated [4]: remarkably reduced
long term clinical scores compared to sham treated ([4]; listed as JM4): significantly lower
animals remaining relapse-free by clinical scoring ([4]; throughout the 5-month experiment, sham 20%): 50%
erythropoietic activity [5]: without the activities responsible for excessive erythropoiesis
peak bioluminescent values in forebrain and spinal cord compared to sham treated ([6]; 5 μg IV daily for 12 days from day 9, n=8, p<0.05): significantly lower
spinal cord bioluminescence signal after start of treatment, single imaged animal ([6]; FIG. 3A, treatment started day 9): virtual absence of spinal cord signal by day 4
GFAP-luc signal returned to baseline earlier than sham-treated group ([6]; MOG EAE): 3 to 4 days
reduction of bioluminescence from peak disease scores compared with sham animals ([6]; at days 11 to 12): 3-4 fold
number of spinal cord bioluminescence flare ups (mean+/−SEM) ([7]; 5 μg IV daily for 12 days, n=8 JM-4, n=7 sham, sham 10.29+/−2.447, p<0.05): 4.0+/−1.018
average daily intensity of the bioluminescent signal versus sham-treated ([7]; chronic remitting-relapsing EAE): not significantly different
number of imaging flare ups / GFAP-luc expression compared to sham treated [7]: substantially less; also recorded: significantly decreased
number of imaging flare ups / GFAP-luc expression compared to sham treated ([7]; listed as JM4): significantly decreased
C3 expression in spinal cord ([8]; 24 days post immunization, JM4 250 μg/kg IV 12 days from day 9, n=7 per group, EAE 17.5+/−3.7, p<0.05): 8.3+/−1.9
attenuation of A1 astrocyte activation ([8]; EAE mice): over 50%
C3 / A1 astrocyte immunoreactivity versus untreated EAE ([8]; spinal cord): massive reduction of C3 positive A1 astrocytes; also recorded: significant decrease in C3 immunoreactivity
decrease of dendritic cells ([9]; EAE mice): ten-fold
mononuclear cells count ([9]; EAE mice): reduced elevated mononuclear cells count to normal
proinflammatory cytokines including IL-2, IL-6, TNF-alpha and INF-gamma ([9]; EAE mice): decreased proinflammatory cytokines
T helper Th 17 positive cells ([9]; SJL/J EAE mice): reduce T helper Th 17 positive cells
Treg cells ([9]; SJL/J EAE mice): expand Treg cells
tissue protective properties ([9]; symptomatic EAE mice, literature): robust EPO-like tissue protective properties

— patent US20240207361A1, “ERYTHROPOIETIN-DERIVED PEPTIDES FOR TREATING RELAPSING-REMITTING MULTIPLE SCLEROSIS” (The United States Government as represented by the …, priority 2021, published 2024)
